The text below walks through data of paper PMC4893161, “The Dynamic Localization of Cytoplasmic Dynein in Neurons Is Driven by Kinesin-1” (Neuron, 2016).

In assay [1] the test system is KLC1 TPR domain (KLC1^TPR). The assay can be described thus: Fluorescence polarization binding to KLC1 TPR domain. Particulars: 150 mM NaCl, pH 7.5, 20 °C. The protocol:
(§1) Measurements were performed as previously described ([Pernigo et al., 2013]) with modifications as listed in Supplemental Experimental Procedures. […]
(§2) minutes with the addition of 15 µl of washed pre-equilibrated Protein-G Dynabeads. Beads were washed three times in IP buffer and then boiled in 50 µl 1X SDS-loading buffer. Samples were separated by SDS-PAGE and transferred to immobilon-PVDF membrane (Millipore) for western blotting. Primary antibodies listed above. HRP conjugated secondary antibodies were from Jackson. […]
(§3) Fluorescence polarization measurements […]
(§4) […] All fluorescence polarization (FP) measurements were carried out on a BMG Labtech PolarStar Omega plate reader at 20 °C by incubating 300 nM TAMRA-labeled peptides with His6-tagged KLC2TPR at increasing concentrations in 25 mM Hepes pH 7.5, 150 mM NaCl, 5 mM β-mercaptoethanol. […]
(§5) Four mouse brains were homogenized in 16 ml of ice cold Homogenization buffer (10 mM HEPES pH 7.4, 0.32 M sucrose, 2 mM EDTA plus protease inhibitors) then centrifuged at 1000 g for 15 min at 4 °C to form supernatant ‘S1’ and pellet ‘P1’. […] Samples of S1-P3 were taken at each stage and protein content measured by BCA assay and normalized to 1 mg/ml with 10 µg loaded on gels. […] Protein concentration and turbidity of fractions was analyzed at 280 and 340 nm respectively in a SynergyMx plate reader (BioTek). […]

Assay [2] concerns the target T1, KLC2 TPR domain (KLC2^TPR) (Mus musculus, UniProt O88448).
T1 construct: amino acids V218 to K480) was amplified from a mouse; made in house; host or cells: E. coli (inferred from the pET28a vector
The assay can be described thus: Fluorescence polarization binding to KLC2 TPR domain. Particulars: 150 mM NaCl, pH 7.5, 20 °C. Here is the method: as §1, §2, §3, §4, §5

T1 sequence (O88448 217-478 limits assumed): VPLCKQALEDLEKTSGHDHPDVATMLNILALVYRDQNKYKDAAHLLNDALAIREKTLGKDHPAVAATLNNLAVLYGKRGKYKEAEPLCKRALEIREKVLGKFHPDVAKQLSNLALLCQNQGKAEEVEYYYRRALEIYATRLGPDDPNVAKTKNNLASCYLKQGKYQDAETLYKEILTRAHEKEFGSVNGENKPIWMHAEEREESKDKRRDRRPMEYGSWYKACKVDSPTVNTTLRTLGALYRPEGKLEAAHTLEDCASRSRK

As to “TAMRA-TRTLQWDTDPS [WD2^pept, peptide centered on the second tryptophan motif of DIC1]”, the “interaction with KLC1 TPR” value in assay [1] is recorded as “did not show an interaction”. The “interaction with KLC2 TPR” value in assay [2] is reported as “did not show an interaction”.
